Measurements: patent publication US20120258938A1, “Enzymatic Production or Chemical Synthesis and Uses for 5,7-Dienes and UVB Conversion Products Thereof” (priority 2008, published 2012)
Values belong to the compound of their own block, whether it stands above or below them.

Tests used:
[1] = tested on: neonatal epidermal melanocytes; test: Proliferation of neonatal epidermal melanocytes; assay type: cell-based; details: 48 hours
[2] = tested on: immortalized normal epidermal melanocytes (PIG1 line); test: Proliferation of PIG1 melanocytes; assay type: cell-based; details: PIG1, 72 h
[3] = tested on: human prostate carcinoma cell line PC-3; test: Proliferation of PC-3 prostate carcinoma cells; assay type: cell-based; details: PC-3, 72 h
Description: (§1) Cells were seeded in 96-well plate and incubated with 20-hydroxycholecalciferol in DMEM medium containing 5% FBS for 48 h (FIG. 25A) or 72 h (FIG. 25C) or for 24 h after a 12 h synchronization in serum free medium (FIG. 25D). […] was added for a final 18 h (FIGS. 25A, 25D) or 12 h (FIG. 25C) of incubation or cells were assessed with sulforhodamine assay (FIG. 25C). Data is shown as mean±SEM (n=5; FIG. 24C) or mean±SEM (n=6; FIGS. 24A, 24C, 24D) and was analyzed using GraphPrism 4.0.

cytokeratin 14 = test: Real-time RT PCR cytokeratin 14 mRNA, normal epidermal keratinocytes; assay type: cell-based, human; details: 10^−10 M
Description: RNA was extracted using an Absolutely RNA RT-PCR Miniprep Kit (Stratagene, La Jolla, Calif.). Real time PCR and reverse transcription products were purchased from Applied Biosystems, Foster City, Calif. Reverse transcription was performed using Taqman® Reverse Transcription Reagents. The following PCR products were used: cytokeratin 14: Hs00265033_m1, involucrin: Hs00846307_s1, CYP27A1: Hs00168003_ml, CYP27B1: Hs00168017_ml, 18SrRNA: Hs99999901_s1. The reaction was performed with Taqman® Universal PCR Master Mix; data were collected on an ABI Prism 7700 and analyzed on Sequence Detector 1.9.1. Specific gene amounts were related to 18SrRNA by comparative CT method.

MG-63 = test: Flow cytometry cell cycle and subG1, MG-63; assay type: cell-based, human; details: MG-63, 24 h
Description: (§2) MD-MBA-231, MG-63, PC-3, and WM164 cells were seeded into Petri dishes and then incubated for 24 h with 20-hydroxycholecalciferol in DMEM medium containing 5% FBS. Then cells were fixed, DNA stained and samples read with flow cytometer as described (7). Data was analyzed with Cell Quest (BD Biosciences). Cell cycle phases were assessed in viable cell populations and subG1 contents were calculated within whole cell population.

MD-MBA-231 = test: Flow cytometry cell cycle and subG1, MD-MBA-231; assay type: cell-based, human; details: MD-MBA-231, 24 h
Description: as §2

TNFα = test: LPS-induced TNFα production by PBMC; assay type: cell-based; details: normal human PBMC, LPS (10 pg/ml), 10^−8M
[4] = tested on: human radial growth phase amelanotic melanoma WM35 cells; test: Viability of WM35 melanoma cells; assay type: cell-based; details: WM35, 24 h
Description: as §1

[5] = tested on: human breast carcinoma cell line MD-MBA-231; test: Proliferation of MD-MBA-231 breast carcinoma cells; assay type: cell-based; details: MD-MBA-231, 48 h, [3H]-thymidine
Description: as §1

[6] = tested on: K562 human chronic myeloid leukemia cells; test: Viable cell count, K562 cells; assay type: cell-based; details: 10^-7 M, 7 days
Description: (§3) K562 human chronic myeloid leukemia (erythroleukemia) and MEL mouse erytholeukemia cells were cultured in RPMI 1640 containing 10% FBS and treated with the drugs at concentrations 0.1 μM. A 0.1% ethanol (EtOH) or 2% DMSO were used as negative or positive control, respectively to estimate the vehicle effect and the ability of the cells to differentiate. Media were exchanged every 72 h and drugs added every day. Growth of cultures was estimated by counting number of viable cells (trypan blue negative cells) as described previously.

[7] = tested on: mouse erytholeukemia cells (Mel); test: Viable cell count, MEL cells; assay type: cell-based; details: 10^-7 M, 7 days
Description: as §3

[8] = tested on: PC3 human prostate cancer cells; test: Soft agar colony formation, PC3 prostate cancer; assay type: cell-based; details: PC3, dose dependent
Description: Growth and survival of prostate cancer cells (PC3) and melanoma cells SKMEL 188 and AbC1 was determined by following their ability to form colonies in soft agar. Cells growing in monolayer culture were trypsinized and resuspended (1,000 cells/well) in 0.25 ml medium containing 0.4% agarose and 5% charcoal stripped serum (HyClone).
Cell suspensions were added to 0.8% agar layer in 24 well plates. Compounds were added from ethanol stocks (100 μM) to final concentrations of 0.1 nM or 10 nM, in 100 μL media. Each condition was tested in quadruplicate. An ethanol solvent control (amount of ethanol equivalent to test) as well as a media-only control was included in the assay. Cells were allowed to grow at 37° with 5% CO2 over two weeks with secosteroids in fresh media (100 μL) being added after every 72 h. Soft agar colonies were scored and stained with 0.5 mg/ml MTT reagent (Promega), 500 μL/well after two weeks. Colonies were then counted under the microscope and number of units was calculated as number of colonies formed divided by the number of cells seeded×100.

[9] = tested on: K562 human chronic myeloid leukemia cells; test: Erythroid differentiation of K562 cells; assay type: cell-based; details: 10^-7 M, 7 days
Description: as §3
To estimate erythroid differentiation (production of hemoglobin), first the number of benzidine positive cells was evaluated after 2 and 7 days in culture. Cells were centrifuged and washed four times with PBS and resuspended in 1 mL of fresh PBS. For hemoglobin determination, a benzidine staining solution was freshly prepared by mixing one part of 30% hydrogen peroxide, one part of base stock solution of 3% benzidine in 90% acetic acid, and 5 parts of water. The solution was diluted 1:10 with the cell suspension and aliquoted in 4 wells in 24-well plate (250 μl each). After 10 min of incubation at RT benzidine-positive cells were counted under the microscope with a minimum of 200 cells scored.
Second, to define spectrophotometrically relative content of hemoglobin, equal number of cells (7×106) were washed with cold PBS and lysed for 20 min in 100 μL of lysis buffer (0.2% Triton X-100 in […] potassium phosphate buffer, pH 7.8). The lysates were centrifuged for 15 min at 1500 r.p.m. and 100 μL of the supernatant was incubated with 2 mL of benzidine solution (5 mg/mL in glacial acetic acid) and 2 ml 30% H2O2 for 10 min increases in comparison with the level of hemoglobin in mock-induced K562 or MEL cells.

SMILES: C=C1/C(=C\C=C2/CCC[C@]3(C)[C@@H]([C@H](C)CCCC(C)(C)O)CC[C@@H]23)C[C@@H](O)C[C@@H]1O [1α,25-dihydroxycholecalciferol, (5Z,7E)-9,10-secocholesta-5,7,10(19)-triene-1α,3β,25-triol, reference compound]
proliferation [1]: Dose dependent inhibition of the proliferation
proliferation [2]: Dose dependent inhibition of the proliferation

EC50 [3]: 570 nM
EC50 [5]: 10 nM
SMILES: C=C1CC[C@H](O)C/C1=C/C=C1\CCC[C@@]2(C)[C@H]1CC[C@@H]2[C@@](C)(O)CCCC(C)C [20(OH)D3, (5Z,7E)-9,10-secocholesta-5,7,10(19)-triene-3β,20-diol]
cytokeratin 14 mRNA expression (cytokeratin 14; 1 h): 45 % of the control
cytokeratin 14 mRNA expression (cytokeratin 14; 6 h): 62 % of the control
G0/G1 of viable cells (MG-63): 52%
G2/M of viable cells (MG-63): 15
S of viable cells (MG-63): 33%
Viable Cells (MG-63): 18
subG1 (MG-63; whole cell population): 82
G0/G1 of viable cells (MD-MBA-231): 47%
G2/M of viable cells (MD-MBA-231): 10
S of viable cells (MD-MBA-231): 43%
Viable Cells (MD-MBA-231): 8
subG1 (MD-MBA-231; whole cell population): 92
TNFα production (TNFα): 2609 ± 1961 pg/mL
concentration above which viability started declining [4]: greater than 1×10^−7 M

SMILES: C=C1CC[C@H](O)C/C1=C/C=C1\CCC[C@]2(C)[C@@H](C(C)=O)CC[C@@H]12 [pD3, (5Z,7E)-3β-hydroxy-9,10-secopregna-5,7,10(19)-trien-20-one]
proliferation of K562 cells [6]: inhibit proliferation
proliferation of mouse erytholeukemia cells (Mel) [7]: inhibit proliferation
colony formation on soft agar [8]: suppress colony formation on soft agar
differentiation of K562 cells [9]: induce differentiation
